Like-named read-outs stand apart in the source and are kept apart here. Marks after values point to notes of the source that are not given here.
How the values were obtained:
Adult S. mansoni = assay: In vitro antischistosomal activity on adult worms; format: cell-based, Schistosoma mansoni; settings: for Mean (±SD) survival time – Adult S. mansoni / Time for the death of 100% worms: 100 µg/mL; for Mean (±SD) survival time – Adult S. mansoni: observation up to 8 h (Table S1)
Excerpt: The NMRI strain of Schistosoma mansoni was used for the experimentations. The parasite was maintained on an albino variety of Biomphalaria glabrata from Brazil (intermediate host) and in Golden Hamsters, Mesocricetus auratus (Janvier Labs, Le Genest-Saint-Isle, France). Detailed methods, for mollusk and hamster infections and for parasite recovery, were previously described.
Adult worms were recovered between 42 and 47 days after infection by hepatic perfusion technique. Twenty to fifty adult worms were disposed in 12-well Falcon® plate containing 2 mL of RPMI 1640 (supplemented with L-glutamine and Hepes 25 mM) and stored in an incubator chamber (37 °C; 5% CO2). Drug preparation started with dissolution of the drug in DMSO to give a 100 mg/mL stock solution. The dilution was complemented with Tween 80 and RPMI in order to obtain the following final ratio dilution: RPMI 1640/Tween 80/DMSO, 1000/0.95/3.8, v/v/v. The drug solution was added to Falcon plates that contained adult worms. The S. mansoni cultures were then incubated with each drug at a final concentration of 100 µg/mL. Positive control was carried out with a solution of praziquantel (Merck KGaA, Darmstadt, Germany) at a concentration of 100 µg/mL. Negative control was carried out with the same RPMI 1640/Tween 80/DMSO solution, but without any drug. Each test was performed in duplicate. Every hour, moving worms were counted in order to define the percentage of survivors. Parasites showing no body contractions during a 30 s observation were considered as dead. Observations were extended to 8 h. Mean survival times (± standard deviation) were calculated for each drug using Kaplan–Meier survival analyses.

[1] = tested on: P. falciparum chloroquine-resistant strain FcB1-Columbia; assay: Antiplasmodial screen at 10 µM and chemosensitivity assay (SYBR Green I), FcB1-Columbia; format: cell-based, Plasmodium falciparum; settings: FcB1-Columbia strain, read-out: IC50 on P. falciparum
[2] = Homolysis of the NO–C bond measured by EPR
Description: Homolysis rate constants kd’ were measured by EPR and estimated using Equation (1) as reported many times in the literature. Further, Ea and kd were estimated using Equation (2). (1) ln([nitroxide]∞−[nitroxide]t/[nitroxide]∞)=−kd·t (2) Ea=−RT ln([…] kd′ )

[3] = adult S. mansoni, observation up to 8 h

Compound	Mean (±SD) survival time – Adult S. mansoni (Adult S. mansoni) [h]	Time for the death of 100% worms (Adult S. mansoni; [3]) [h]	further results
CCOP(=O)(OCC)C(N(OC(C)c1ccncc1)C(C)(C)CO)C(C)(C)C (centres unmarked) [2a]	> 8	> 8	
CCOP(=O)(OCC)C(N(OC(C)c1cccnc1)C(C)(C)C)C(C)(C)C (centres unmarked) [(RR/SS)-1b]			IC50 [1]: 22.5 µM
CCOP(=O)(OCC)C(N(OC(C)c1ccc(N)cc1)C(C)(C)C)C(C)(C)C (centres unmarked) [(RR/SS)-1w]	2.1 ± 0.1	3	IC50 [1]: > 10 µM
CCOP(=O)(OCC)C(N(OC(C)c1ccc(C(=O)O)cc1)C(C)(C)C)C(C)(C)C (centres unmarked) [(RR/SS)-1y]	> 8	> 8	IC50 [1]: > 10 µM
CC(ON1C(C)(C)CCCC1(C)C)c1ccccc1 (centres unmarked) [9z]	> 8	> 8	
CCOP(=O)(OCC)C(N(OC(CN)c1ccccn1)C(C)(C)C)C(C)(C)C (centres unmarked) [(RR/SS)-1g]	1.9 ± 0.1	2	IC50 [1]: > 10 µM
CCOP(=O)(OCC)C(N(OC(C)c1ccc(C)cc1)C(C)(C)C)C(C)(C)C (centres unmarked) [(RR/SS)-1s]	> 8	> 8	
CCOP(=O)(OCC)[C@@H](N(O[C@H](C)n1cc[n+](C)c1)C(C)(C)C)C(C)(C)C.Cc1ccc(S(=O)(=O)[O-])cc1 (relative stereo) [(RR/SS)-1n]	> 8	> 8	
CC(ON1C(C)(C)CC(O)CC1(C)C)c1ccccc1 (centres unmarked) [8z]	1.9 ± 0.1	2	
CCOP(=O)(OCC)C(N(OC(C)n1cc[n+](C)c1)C(C)(C)C)C(C)(C)C.Cc1ccc(S(=O)(=O)[O-])cc1 (centres unmarked) [(RS/SR)-1n]	> 8	> 8	
CC(ON1C(C)(C)CCCC1(C)C)c1cc(-c2ccccn2)nc(-c2ccccn2)c1 (centres unmarked) [9F]			activation energy Ea ([2]; MeOH/water 1:1 pH = 7.4): 131.9 ^k kJ/mol; re-estimated homolysis rate constant kd at 120 °C ([2]; MeOH/water 1:1 pH = 7.4): 0.7 ^k 10^−3 s^−1; half-lifetime t1/2 at 37 °C ([2]; MeOH/water 1:1 pH = 7.4 (aqueous medium)): 385 ^k day; homolysis rate constant kd′ ([2]; MeOH/water 1:1 pH = 7.4, 90 °C): 0.25 ^k 10^−4s^−1; activation energy Ea ([2]; t-BuPh): 131.0 ^k kJ/mol; half-lifetime t1/2 at 37 °C ([2]; t-BuPh): 385 ^k day; re-estimated homolysis rate constant kd at 120 °C ([2]; t-BuPh): 0.95 ^k 10^−3 s^−1; homolysis rate constant kd′ ([2]; t-BuPh, 111 °C): 3.7 ^k 10^−4s^−1
CC(ON1C(C)(C)CC(O)CC1(C)C)c1ccncc1 (centres unmarked) [8a]	> 8	> 8	
O=C(C1CCCCC1)N1CC(=O)N2CCc3ccccc3C2C1 (centres unmarked) [Praziquantel, praziquantel, reference compound]	1.0 ± 0.05	1	S. mansoni Mean Survival Time (Adult S. mansoni; adult S. mansoni, single dose 100 µg/mL, observation up to 8 h): 1.0 ± 0.05 h
CCOP(=O)(OCC)C(N(OC(C)c1cc(-c2ccccn2)nc(-c2ccccn2)c1)C(C)(C)CO[Si](C)(C)C(C)(C)C)C(C)(C)C (centres unmarked) [(RS/SR)-6F, Diethyl(1-((1-([2,2′:6′,2′′-terpyridin]-4′-yl)ethoxy)(1-((tert-butyldimethylsilyl)oxy)-2-methylpropan-2-yl)amino)-2,2-dimethylpropyl)phosphonate]			activation energy Ea ([2]; t-BuPh): 121.7 kJ/mol; half-lifetime t1/2 at 37 °C ([2]; t-BuPh): 10 days; re-estimated homolysis rate constant kd at 120 °C ([2]; t-BuPh): 16.3 10^−3 s^−1; homolysis rate constant kd′ ([2]; t-BuPh, 81 °C): 2.7 10^−4s^−1
CCOP(=O)(OCC)C(N(OC(C)c1cc(-c2ccccn2)nc(-c2ccccn2)c1)C(C)(C)CO[Si](C)(C)C(C)(C)C)C(C)(C)C (centres unmarked) [(RR/SS)-6F, Diethyl(1-((1-([2,2′:6′,2′′-terpyridin]-4′-yl)ethoxy)(1-((tert-butyldimethylsilyl)oxy)-2-methylpropan-2-yl)amino)-2,2-dimethylpropyl)phosphonate]			activation energy Ea ([2]; t-BuPh): 123.8 kJ/mol; half-lifetime t1/2 at 37 °C ([2]; t-BuPh): 24 days; re-estimated homolysis rate constant kd at 120 °C ([2]; t-BuPh): 8.5 10^−3 s^−1; homolysis rate constant kd′ ([2]; t-BuPh, 81 °C): 1.4 10^−4s^−1
CC(ON(C(C)(C)C)C(C)(C)C)c1ccncc1 (centres unmarked) [14a]	2.5 ± 0.10	3	
CCOP(=O)(OCC)C(N(OC(CN)c1ccncc1)C(C)(C)C)C(C)(C)C (centres unmarked) [(RS/SR)-1f]			IC50 [1]: > 10 µM
CCOP(=O)(OCC)C(N(OC(C)c1cc(-c2ccccc2)cc(-c2ccccc2)c1)C(C)(C)CO[Si](C)(C)C(C)(C)C)C(C)(C)C (centres unmarked) [(RR/SS)-6G, Diethyl(1-((1-([1,1′:3′,1′′-terphenyl]-5′-yl)ethoxy)(1-((tert-butyldimethylsilyl)oxy)-2-methylpropan-2-yl)amino)-2,2-dimethylpropyl)phosphonate]			half-life ([2]; half-lifetime t1/2 at 37 °C, t-BuPh): 33.4 days; activation energy Ea ([2]; t-BuPh): 125.5 kJ/mol; re-estimated homolysis rate constant kd at 120 °C ([2]; t-BuPh): 5.10 10^−3 s^−1; homolysis rate constant kd′ ([2]; t-BuPh, 92 °C): 2.7 10^−4s^−1

Compound	Mean (±SD) survival time – Adult S. mansoni (Adult S. mansoni) [h]	Time for the death of 100% worms (Adult S. mansoni; [3]) [h]	further results
CCOP(=O)(OCC)C(N(OC(C)c1cc(-c2ccccn2)nc(-c2ccccn2)c1)C(C)(C)C)C(C)(C)C (centres unmarked) [1F]			IC50 [1]: > 10 µM
CCOP(=O)(OCC)C(N(OC(C)c1cn(C)c[n+]1C)C(C)(C)C)C(C)(C)C.[I-] (centres unmarked) [(RR/SS)-1r]		4	
CCOP(=O)(OCC)C(N(OC(C)c1ccccc1)C(C)(C)C(=O)OC)C(C)(C)C (centres unmarked) [(RS/SR)-5z]	> 8	> 8	
CCOP(=O)(OCC)C(N(OC(C)c1cc(-c2ccccc2)cc(-c2ccccc2)c1)C(C)(C)CO)C(C)(C)C (centres unmarked) [(RS/SR)-2G, Diethyl(1-((1-([1,1′:3′,1′′-terphenyl]-5′-yl)ethoxy)(1-hydroxy-2-methylpropan-2-yl)amino)-2,2-dimethylpropyl)phosphonate]	> 8	> 8	activation energy Ea ([2]; MeOH/water 2:1 pH = 7.0): 122.1 kJ/mol; half-lifetime t1/2 at 37 °C ([2]; MeOH/water 2:1 pH = 7.0): 12.7 days; re-estimated homolysis rate constant kd at 120 °C ([2]; MeOH/water 2:1 pH = 7.0): 14.4 10^−3 s^−1; homolysis rate constant kd′ ([2]; MeOH/water 2:1 pH = 7.0, 81 °C): 2.3 10^−4s^−1; activation energy Ea ([2]; t-BuPh): 120.8 kJ/mol; half-lifetime t1/2 at 37 °C ([2]; t-BuPh): 7.5 days; re-estimated homolysis rate constant kd at 120 °C ([2]; t-BuPh): 21.6 10^−3 s^−1; homolysis rate constant kd′ ([2]; t-BuPh, 81 °C): 3.7 10^−4s^−1
CCOP(=O)(OCC)C(N(OC(C)c1cccnc1)C(C)(C)C)C(C)(C)C (centres unmarked) [(RS/SR)-1b]			IC50 ([1]; listed as (RS/SR)-1B): > 10 µM
CCOP(=O)(OCC)C(N(OC(C)c1ccc(C)cc1)C(C)(C)C)C(C)(C)C (centres unmarked) [(RS/SR)-1s]	3.3 ± 0.1	4	
CCOP(=O)(OCC)C(N(OC(C)c1ccccn1)C(C)(C)CO)C(C)(C)C (centres unmarked) [(RS/SR)-2c]			IC50 [1]: > 10 µM
CCOP(=O)(OCC)C(N(OC(C)c1cn(C)cn1)C(C)(C)C)C(C)(C)C (centres unmarked) [(RR/SS)-1q]	3.3 ± 0.9	6	
CCOP(=O)(OCC)C(N(OC(C)c1cc(-c2ccccc2)cc(-c2ccccc2)c1)C(C)(C)CO[Si](C)(C)C(C)(C)C)C(C)(C)C (centres unmarked) [(RS/SR)-6G, Diethyl(1-((1-([1,1′:3′,1′′-terphenyl]-5′-yl)ethoxy)(1-((tert-butyldimethylsilyl)oxy)-2-methylpropan-2-yl)amino)-2,2-dimethylpropyl)phosphonate]			activation energy Ea ([2]; t-BuPh): 124.7 kJ/mol; re-estimated homolysis rate constant kd at 120 °C ([2]; t-BuPh): 6.50 10^−3 s^−1; homolysis rate constant kd′ ([2]; t-BuPh, 92 °C): 3.5 10^−4s^−1
CCOP(=O)(OCC)C(N(OC(C)c1cccnc1)C(C)(C)CO)C(C)(C)C (centres unmarked) [2b]	> 8	> 8	
CCOP(=O)(OCC)C(N(OC(C)c1ccccc1)C(C)(C)C(=O)O)C(C)(C)C (centres unmarked) [(RS/SR)-4z]	> 8	> 8	
CCOP(=O)(OCC)C(N(OC(C)c1ccccn1)C(C)(C)C)C(C)(C)C (centres unmarked) [(RR/SS)-1c]			IC50 [1]: > 10 µM
CCOP(=O)(OCC)C(N(OC(C)c1cn(C)c[n+]1C)C(C)(C)C)C(C)(C)C.[I-] (centres unmarked) [(RS/SR)-1r]		6	
CC(ON1C(C)(C)CCCC1(C)C)c1cccnc1 (centres unmarked) [9b]		3	
CC(ON1C(C)(C)CC(O)CC1(C)C)c1cccnc1 (centres unmarked) [8b]	> 8	> 8	
CCOP(=O)(OCC)C(N(OC(C)c1cn(C)cn1)C(C)(C)C)C(C)(C)C (centres unmarked) [(RS/SR)-1q]	1.3 ± 0.2	2	
4-hydroxy-tetramethylpiperidine-N-oxyl [compound 8]	> 8	> 8	

From PMC7503767, “Alkoxyamines Designed as Potential Drugs against Plasmodium and Schistosoma Parasites” (Molecules, 2020)
